Laboratory results taken from patent US20200291100A1, “TREATMENT OF AGE-RELATED AND MITOCHONDRIAL DISEASES BY INHIBITION OF HIF-1 ALPHA FUNCTION” (President and Fellows of Harvard College, priority 2012, published 2020).
Entries after “also recorded” stand apart in the source; their conditions may differ.

Columns and labels:
[1] = system: primary PGC-1α/β KO myotubes; assay: NMN with or without HIF stabilizing compounds in PGC-1α/β KO myotubes, qPCR of mitochondrially-encoded ETC genes; assay type: cell-based, mouse
Procedure: As a functional test of whether NMN reverses genome asynchrony by depleting cells of HIF-1α, primary PGC-1α/β KO myotubes were incubated with NMN in the presence and absence of the HIF stabilizing compounds DMOG and DFO. […] Primary myoblasts cells were isolated from WT, SIRT1 KO (Price et al., 2012) and PGC-1α/β KO (Zechner et al., 2010) mice as previously described (Price et al., 2012). WT and PGC-1α/β KO primary myoblasts were plated and allowed to differentiate into myotubes by replacing the media with low glucose DMEM supplemented with 2% horse serum (Sigma-Aldrich) for 4 days. After the differentiation the cells were infected with empty vector or flag-SIRT1 adenovirus as described before ([…] al., 2007). Media was replaced with fresh DMEM supplemented with 2% horse serum (Sigma-Aldrich) for an additional 48 hr and, after that the cells were harvested for the different assays as described. […] Quantitative RT-PCR reactions were performed using 1 μM of primers and LightCycler® 480 SYBR Green Master (Roche) on an LightCycler® 480 detection system (Roche). Calculations were performed by a comparative method (2-ΔCT) using 18S as an internal control. For mtDNA analysis, total DNA was extracted with DNeasy blood and tissue kit (Qiagen). mtDNA was amplified using primers specific for the mitochondrial cytochrome c oxidase subunit 2 (COX2) gene and normalized to genomic DNA by amplification of the ribosomal protein s18 (rps18) nuclear gene. Primers were designed using the IDT software (IDT) and the primer sequences can be found in Table 1.

[2] = system: 6- and 22-month-old C57BL/6J mice; assay: NMN treatment of 6- and 22-month-old mice, skeletal muscle readouts; assay type: in vivo, mouse; settings: NMN for one week
Text: C57BL/6J mice of 6, 22, or 30 months of age were obtained from the National Institutes of Aging mouse aging colony. Additionally 22 months old caloric restricted mice were also obtained from the National Institutes of Aging mouse aging colony. EGLN1 KO, SIRT1 KO and SIRT1 OE mice were generated as previously described (Minamishima et al., 2008; Price et al., 2012). Mice were acclimated for at least one-week prior to sacrifice. 3, 6, 22 and 24-month-old mice were given interperitoneal (IP) injections of 500 mg NMN/kg body weight per day or the equivalent volume of PBS for 7 consecutive days at 5:00 pm and 7:00 am on day 8 and sacrificed 4 hr after last injection.
Cytochrome c oxidase activity was polarographically determined based on the 02 consumption upon cytochrome c oxidation, as previously described (Brautigan et al., 1978). The reaction was carried out at 25° C. in 1.3 mL of standard respiratory medium (as in mitochondrial respiration) supplemented with 2 μM rotenone, 10 μM oxidized cytochrome c, 0.3 mg TritonX-100. Following addition of the sample, the reaction was initiated by adding 5 mM ascorbate plus 0.25 mM tetramethylphenylene-diamine (TMPD).
(§1) ATP content was measured with a commercial kit according to the manufacturer's instructions (Roche).
RNA from skeletal muscle tissue and C2C12 cells were extracted with RNeasy mini kit (Qiagen) according to the instructions and quantified using the NanoDrop 1000 spectrophotometer (Thermo Scientific). cDNA was synthesized with the iSCRIP cDNA synthesis kit (BioRad) using 600 ng of RNA. Quantitative RT-PCR reactions were performed using 1 μM of primers and LightCycler® 480 SYBR Green Master (Roche) on an LightCycler® 480 detection system (Roche). Calculations were performed by a comparative method (2-ΔCT) using 18S as an internal control. For mtDNA analysis, total DNA was extracted with DNeasy blood and tissue kit (Qiagen). mtDNA was amplified using primers specific for the mitochondrial cytochrome c oxidase subunit 2 (COX2) gene and normalized to genomic DNA by amplification of the ribosomal protein s18 (rps18) nuclear gene. Primers were designed using the IDT software (IDT) and the primer sequences can be found in Table 1.
Protein extracts from tissue or C2C12 cells were obtained by lysis in ice-cold lysis buffer (150 mM NaCl, 10 mM Tris HCl (pH 7.4), 1 mM EDTA, 1 mM EGTA, 1% Triton X-100, 0.5% NP-40) supplemented with a cocktail of protease and phosphatase inhibitors (Roche). Protein content was determined by the Bradford protein assay (Biorad), and 50 μg proteins were run on SDS-PAGE under reducing conditions. The separated proteins were then electrophoretically transferred to a polyvinylidene difluoride membrane (Perkin-Elmer). […] The immunostaining was detected using horseradish peroxidase-conjugated anti-rabbit or anti-mouse immunoglobulin for 1 h at room temperature.
NAD^+ from skeletal muscle was quantified with a commercially available kit (BioVision) according to the manufacturer's instructions and as described before (Gomes et al., 2012).
It was shown above that decreased levels of NAD^+ associated with age invokes a SIRT1 dependent pseudohypoxic response that disrupts mitochondrial homeostasis. Therefore, artificially boosting NAD^+ levels in old mice should restore mitochondrial homeostasis by reducing HIF-1α levels and restoring the expression of mitochondrial-encoded ETC components. Administration of NMN, a compound recently shown to increase NAD^+ levels in a variety of tissues (Yoshino et al., 2011), to 6- and 22-month-old C57BL/6J mice for one week increased levels of cellular NAD^+ in both the young and old mice were by 2-fold. The boost in the treated 22-month-old mice resembled the untreated 6-month-olds (FIG. 17A).

Egln1 KO mice = assay: NMN treatment of Egln1 KO mice; assay type: in vivo, mouse; settings: skeletal muscle of Egln1 KO mice compared to WT controls; NMN 500 mg/kg IP, 7 days
Procedure: Whole body adult-inducible Egln1 knockout mice (Minamishima et al, 2007) were treated with IP injection of tamoxifen for 3 days after which they were allowed to rest. The mice were given interperitoneal (IP) injections of 500 mg NMN/kg body weight per day or the equivalent volume of PBS for 7 consecutive days at 5:00 pm and 7:00 am on day 8 and sacrificed 4 hr after last injection. All animal studies followed the guidelines of and were approved by the Harvard Institutional Animal Care and Use Committee.
as §1
RNA from skeletal muscle tissue and C2C12 cells were extracted with RNeasy mini kit (Qiagen) according to the instructions and quantified using the NanoDrop 1000 spectrophotometer (Thermo Scientific). cDNA was synthesized with the iSCRIP cDNA synthesis kit (BioRad) using 600 ng of RNA. Quantitative RT-PCR reactions were performed using 1 μM of primers and LightCycler® 480 SYBR Green Master (Roche) on an LightCycler® 480 detection system (Roche). Calculations were performed by a comparative method (2-ΔCT) using 18S as an internal control. […]

Row | SMILES | effect on NMN-induced expression of mitochondrially-encoded ETC genes ([1]; HIF stabilizing compound added to NMN-treated cells, 1 mM DMOG or 10 μM DFO, 12 hours) | expression of mitochondrial-encoded genes ([2]; gastrocnemius, qPCR, old mice) | ATP levels ([2]; gastrocnemius, old mice) | COX activity ([2]; gastrocnemius, old mice) | HIF-1α protein (immunoblot) ([2]; gastrocnemius, old mice) | VHL protein (immunoblot) ([2]; gastrocnemius, old mice) | lactate levels in the skeletal muscle ([2]; old mice) | muscle wasting markers Atrogin-1 and MuRF1 ([2]; skeletal muscle of old mice, immunoblot) | expression of inflammation markers ([2]; skeletal muscle of old mice, qPCR) | phosphorylation of AKT and IRS-1 ([2]; soleus of old mice, immunoblot) | age-induced insulin resistance in the skeletal muscle ([2]; soleus of old mice) | levels of cellular NAD+ ([2]; young and old mice) [fold] | ATP levels (Egln1 KO mice) | mitochondrial-encoded genes (Egln1 KO mice) | expression of mitochondrially-encoded ETC genes (ND1, CYTB, COX1, ATP6) ([1]; NMN alone, versus PBS)
1 | COC(=O)CNC(=O)C(=O)OC [DMOG, dimethyloxaloylglycine] | completely abolished |  |  |  |  |  |  |  |  |  |  |  |  |  | 
2 | NC(=O)c1ccc[n+]([C@@H]2O[C@H](COP(=O)([O-])O)[C@@H](O)[C@H]2O)c1 [NMN, nicotinamide mononucleotide] |  | restored | increase | increase | reversed; also recorded: reduced the level of HIF-1α | reversed the age-induced decline | suppressed the increase | completely reversed | completely reversed | increasing the phosphorylation | reverse age-induced insulin resistance | 2 | did not restore | did not restore | induced expression
